Legend:
[1] = Cmax in patient plasma at 600 mg, iv or 600 mg, po administered every 12 hrs by HPLC; format: ADME, organism-based; conditions: human
[2] = AUC (24 hrs) in patient plasma at 600 mg, iv or 600 mg, po administered every 12 hrs by HPLC; format: ADME, organism-based; conditions: human
[3] = AUC (12 hrs) in liver transplant patient plasma at 600 mg, iv or 600 mg, po administered every 12 hrs by HPLC; format: ADME, organism-based; conditions: human
Homo sapiens = assay: Nonrenal clearance in healthy human at 600 mg, po; format: ADME, organism-based; conditions: in vivo
[4] = Drug excretion in healthy human urine assessed as unchanged compound at 600 mg, po; format: ADME, tissue-based; conditions: read-out: Activity

CC(=O)NC[C@H]1CN(c2ccc(N3CCOCC3)c(F)c2)C(=O)O1 [LINEZOLID]
Cmax [1]: 14700 ng/mL
AUC [2]: 196 µg·h/mL
AUC at 12 h [3]: 413 µg·h/mL
Dose non renally cleared (Homo sapiens): 65%
dose excreted [4]: 30%
